The values that follow come from US9453009B2, “Synthesis of deuterated morpholine derivatives” (Concert Pharmaceuticals, Inc., priority 2008, dated 2016).

One data set can be described thus: in vivo. As to conditions: male, Sprague Dawley, rat, 5 mg/kg.
For data set [1] the following is noted: male, Sprague Dawley, rat, in vivo, 5 mg/kg.
Method: (§1) The combo dose was prepared by mixing both by 1:1 to yield a concentration of 5 mg/mL for each compound (pH˜6) for intravenous and oral administration. The obtained solution was clear and colourless.
(§2) Male Sprague Dawley rats (body weight: 170 g to 220 g) were used in this study. Before the pharmacokinetic studies, animals were randomly assigned to the treatment groups.
(§3) The plasma samples and the dose formulation were stored at −20° C. until bioanalysis.
(§4) Plasma samples (0.1 mL) were transferred to Eppendorff tube, then 20 μL methanol, and 300 μL IS solution (50 ng/mL) were added to it. After Vortexing for 1 min and centrifuging for 5 min at 15,000 rpm, 5 μL of supernatant was injected into LC/MS/MS.
(§5) The concentrations in plasma below the limit of quantitation (LOQ=5 ng/mL) were designated as zero. The pharmacokinetic data analysis was performed using noncompartmental analysis modules in WinNonlin2.0.
Data set [2] relates to mtDNA-encoded protein synthesis. Description: Mitochondria Toxicity Study (Complex IV/Frataxin ratio in HepG2 cells). As to conditions: conclusion in words.

The structures appear in SMILES notation. Like-named read-outs stand apart in the source and are kept apart here.
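Wherever Cmax is given: drug levels in rat plasma quantified by LC/MS/MS after a combined two-compound formulation, quantitation limit 5 ng/mL with lower values set to zero, parameters from noncompartmental analysis.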
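Wherever Plasma Concentration Mean is given: drug levels in rat plasma quantified by LC/MS/MS after a combined two-compound formulation, quantitation limit 5 ng/mL with lower values set to zero, parameters from noncompartmental analysis.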
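Wherever Vd is given: drug levels in rat plasma quantified by LC/MS/MS after a combined two-compound formulation, quantitation limit 5 ng/mL with lower values set to zero, parameters from noncompartmental analysis.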
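Wherever volume of distribution at terminal phase as % of total body water is given: drug levels in rat plasma quantified by LC/MS/MS after a combined two-compound formulation, quantitation limit 5 ng/mL with lower values set to zero, parameters from noncompartmental analysis.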

Method for in vivo: as §1, §2, §3, §4, §5

The term Vd denotes a proportionality between amount in the body and measured concentration, not a real space. Read a high Vd as wide distribution into tissue. A word on the clearance: it is the volume of plasma or blood freed of the substance per unit of time. As usually defined, the AUC(0-inf) is the area under the concentration-time curve extrapolated to infinity. A high value points to more exposure. For orientation: Cmax means the peak of the concentration-time curve. `CC(=O)NC[C@H]1CN(c2ccc(N3CCOCC3)c(F)c2)C(=O)O1` [linezolid]: the volume of distribution (Vd) in “in vivo” (iv) was found to be 0.76 L/kg. For the same compound, in “in vivo” (iv), the clearance was 9.17 mL/min/kg. Also, the concentration at 12 hr in the data set “in vivo” (iv) and in “in vivo” (po) was 0 ng/mL each time. Further, the concentration at 24 hr in “in vivo” (iv) and in the data set “in vivo” (po) was 0 ng/mL throughout. This compound also displayed an AUC(0-inf) in “in vivo” (po) of 6940 ng·h/mL. The same compound returned a Cmax in “in vivo” (po) of 2370 ng/mL. In addition, the concentration at 10 hr in “in vivo” (po) was determined as 0 ng/mL. Also, the “volume of distribution at terminal phase as % of total body water” value in data set [1] (iv) is listed as 131.34%. In addition, the “Plasma Concentration Mean” value in data set [1] (iv, 0.25 hr) was 4607.18 ng/mL; in data set [1] (iv, 0.5 hr) it was 3776.24 ng/mL; in data set [1] (iv, 1 hr) it was 2796.88 ng/mL; in data set [1] (iv, 2 hr) it was 1436.16 ng/mL; in data set [1] (iv, 4 hr) it was 320.08 ng/mL; in data set [1] (iv, 6 hr), 63.05 ng/mL. Further, the “Plasma Concentration Mean” value was found to be 19.45 ng/mL in data set [1] (iv, 8 hr); 6.33 ng/mL in data set [1] (iv, 10 hr); 2152.89 ng/mL in data set [1] (po, 0.25 hr); 2180.60 ng/mL in data set [1] (po, 0.5 hr); 1892.82 ng/mL in data set [1] (po, 1 hr); 1337.56 ng/mL in data set [1] (po, 2 hr). The “Plasma Concentration Mean” value is reported as 612.50 ng/mL in data set [1] (po, 4 hr); 224.99 ng/mL in data set [1] (po, 6 hr); 71.33 ng/mL in data set [1] (po, 8 hr); 19.92 ng/mL in data set [1] (po, 10 hr); 1.72 ng/mL in data set [1] (po, 12 hr). Moreover, the “Plasma Concentration” value is reported as 0 ng/mL in data set [1] (iv, 12 hr); 0 ng/mL in data set [1] (iv, 24 hr); 0.00 ng/mL in data set [1] (po, 24 hr).
`[2H]C1([2H])CN(c2ccc(N3C[C@H](CNC(C)=O)OC3=O)cc2F)CC([2H])([2H])O1` [compound 10, (S)—N-((3-(3-Fluoro-4-(2,2,6,6-d4-morpholino)phenyl)-2-oxooxazolidin-5-yl)methyl)acetamide] showed a concentration at 10 hr in “in vivo” (iv) of 0 ng/mL. In “in vivo” (po), the concentration at 12 hr was found to be 0 ng/mL. For the same compound, the mitochondria toxicity result in data set [2] is “comparable to that of linezolid”. The “volume of distribution at terminal phase as % of total body water” value in data set [1] (iv) is recorded as 113.43%. In addition, the “Plasma Concentration” value in data set [1] (po, 12 hr) was found to be 0.00 ng/mL.
